Test results published in patent US7015345B2, “Propionic acid derivatives” (Asahi Kasei Pharma Corporation, priority 2002, dated 2006).
Where two headings read alike, the source gives them in different places.

Legend:
[1] = test system: hamsters fed with high cholesterol diet; test: Total plasma cholesterol and non-HDL cholesterol reducing action in hamster fed high cholesterol diet; format: in vivo; conditions: Mesocricetus auratus, 192 h, hamsters on high cholesterol diet, 10 mg/kg oral once a day for one week, plasma on 8th day
Description: Test for Measuring Total Plasma Cholesterol Reducing Action and Non-HDL Cholesterol (VLDL Cholesterol+LDL Cholesterol) Reducing Action in Hamster
A test compound (10 mg/kg) was administered once a day for one week to hamsters fed with high cholesterol diet (CE-2 (Clea Japan)+1% cholesterol+10% coconut oil) for five days. The plasma cholesterol level and the plasma HDL cholesterol level were measured immediately before the start of the administration of the test sample or vehicle on the 1st day, and the hamsters were divided into groups so that the groups gave no significant value of initial levels of the both measurements. Each of the test samples was dissolved in a 0.5% methylcellulose (MC) solution and orally administered. A 0.5% methylcellulose (MC) solution was orally administered to the hamsters as a vehicle control group. A blood sample was collected on the 8th day, and the plasma cholesterol level and the plasma HDL cholesterol level were measured. The total cholesterol reducing rate was obtained by using the following equation. [formula]
Further, non-HDL cholesterol level (LDL cholesterol level+VLDL cholesterol level) was calculated as (Total cholesterol level−HDL cholesterol level), and the reducing rate thereof was calculated by using the following equation. [formula]

[2] = test system: 3T3-L1 precursor adipocytes; test: Uptake of glucose by adipocytes ([3H]-2-deoxy-glucose uptake); format: cell-based; conditions: Mus musculus, 100 nM compound, 4 to 5 days culture, 100 nM insulin stimulation, relative to 10 μM rosiglitazone taken as 100%, read-out: Amount of glucose uptake (%)
Description: (§1) Test for Uptake of Glucose By Adipocytes and Test for Triglyceride Accumulation in Adipocytes
According to the method of Mukherjee et al. (Mol. Endocrinol, 14, 1425–1433, 2000), a glucose uptake experiment was performed by using cultured cells. 3T3-L1 precursor adipocytes were cultured for 4 to 5 days in the presence of a test compound, and then stimulated with 100 nM insulin, and then the amount of [^3H]-2-deoxy-glucose (2DG) uptake by the cells was measured. The amount of glucose uptake provided after the treatment with 100 nM of each compound was measured, and represented as a relative value based on the amount of glucose uptake provided after the treatment with 10 μM rosiglitazone, which was taken as 100%.

[3] = test system: Zucker rats; test: Liver triglyceride contents in Zucker rats; format: in vivo; conditions: Rattus norvegicus, 336 h, 1 mg/kg once a day for 2 weeks, read-out: Triglyceride reducing rate (%)
Description: Measurement of Liver Triglyceride Contents in Zucker Rats
To Zucker rats, a vehicle (0.5% MC), a compound of the present invention or fenofibrate (Sigma) was administered once a day for 2 weeks. The livers were isolated on the next day of the final administration, and amounts of triglyceride in the livers were determined. Triglyceride was extracted by adding 5 ml of a mixture of hexane and isopropanol (2:1, V/V) to 100 mg of liver, homogenizing the liver using Polytron homogenizer, then sufficiently stirring and centrifuging the homogenate at 2000 g for 10 minutes at room temperature. The amount of triglyceride in the solution layer was measured.

[4] = test system: db/db mice; test: Hypoglycemic action and triglyceride-decreasing action in db/db mice; format: in vivo; conditions: Mus musculus, 360 h; for inhibition in vivo at 1 mg/kg: 1 mg/kg oral once a day for 2 weeks; for inhibition in vivo at 3 mg/kg: 3 mg/kg oral once a day for 2 weeks
Description: Test for Measuring Hypoglycemic Action and Triglyceride-Decreasing Action in db/db Mice
Each of test compounds was administered once a day for 2 weeks to db/db mice genetically presenting pathological conditions of obesity, hyperglycemia, and hyperlipidemia. Blood was collected from the mice immediately before the start of administration of a test sample or a vehicle on the first day. Plasma glucose levels and triglyceride levels were measured, and the mice were divided into groups so that average glucose levels and triglyceride levels gave no significant value among the groups. All the test samples were suspended in a 0.5% methylcellulose (MC) solution and orally administered. For a vehicle-administered control group, a 0.5% MC solution was orally administered. Blood samples were collected from the mice on the 15th day, and plasma glucose levels and triglyceride levels were measured. A hypoglycemic rate and triglyceride-reducing rate were calculated by using the following equations.

[5] = test system: 3T3-L1 precursor adipocytes; test: Triglyceride accumulation in adipocytes; format: cell-based; conditions: Mus musculus, 100 nM compound, 4 to 5 days culture, relative to 10 μM rosiglitazone taken as 100%, read-out: Amount of accumulated triglyceride (%)
Description: as §1
Further, 3T3-L1 precursor adipocytes were cultured for 4 to 5 days in the presence of a test compound, and then the amount of triglyceride in the cells was measured according to the method of Shibata T et al. (Eur. J. Pharmacol., 364 (2–3), 211–219, 1999). The amount of accumulated triglyceride provided after the treatment with 100 nM of each compound was measured, and represented as a relative value based on the amount of accumulated triglyceride provided after the treatment with 10 μM rosiglitazone, which was taken as 100%.

[6] = non-HDL = total cholesterol - HDL cholesterol, read-out: Non-HDL cholesterol reducing rate (%)
[7] = read-out: Total cholesterol reducing rate (%)
[8] = plasma glucose on 15th day vs vehicle, read-out: Hypoglycemic rate (%)
[9] = plasma triglyceride on 15th day vs vehicle, read-out: Triglyceride reducing rate (%)

Row | Structure (SMILES) | inhibition in vivo at 10 mg/kg [1, 6] [%] | inhibition in vivo at 10 mg/kg [1, 7] [%] | Emax at 0.1 µM [2] [%] | inhibition in vivo at 1 mg/kg [3] [%] | inhibition in vivo at 1 mg/kg [4, 8] [%] | inhibition in vivo at 1 mg/kg [4, 9] [%] | Emax at 0.1 µM [5] [%] | inhibition in vivo at 3 mg/kg [4, 8] [%] | inhibition in vivo at 3 mg/kg [4, 9] [%]
1 | CCCCCCCN(CCOc1ccc(CC(OCCC)C(=O)O)cc1)C(=O)OC (stereo not drawn) [Example 120, 3-{4-[2-(N-heptyl-N-methoxycarbonylamino)ethoxy]phenyl}-2-propoxypropionic acid] | 25 | 28 | 90 | 28 | 39 | 48 | 88 | – | –
2 | CCCCOCCN(CCOc1ccc(CC(OCC)C(=O)O)cc1)C(=O)OC(C)C (stereo not drawn) [Example 122, 3-(4-{2-[N-(2-butoxyethyl)-N-isopropoxycarbonylamino]ethoxy}phenyl)-2-ethoxypropionic acid] | 9 | 10 | 92 | 2 | – | – | 90 | 14 | 21
3 | CCCCOCCN(CCOc1ccc(CC(OCC)C(=O)O)cc1)C(=O)OCC(C)C (stereo not drawn) [Example 123, 3-(4-{2-[N-(2-butoxyethyl)-N-isobutoxycarbonylamino]ethoxy}phenyl)-2-ethoxypropionic acid] | 25 | 25 | 99 | 35 | – | – | 96 | 8 | 32
4 | CCCCCCCN(CCOc1ccc(CC(OC(C)C)C(=O)O)cc1)C(=O)OC(C)C (stereo not drawn) [Example 125, 3-{4-[2-(N-heptyl-N-isopropoxycarbonylamino)ethoxy]phenyl}-2-isopropoxypropionic acid] | 48 | 45 | 97 | 36 | 42 | 64 | 98 | – | –
5 | CCCCOCCN(CCOc1ccc(CC(OC(C)C)C(=O)O)cc1)C(=O)OC(C)C (stereo not drawn) [Example 130, 3-(4-{2-[N-(2-butoxyethyl)-N-isopropoxycarbonylamino]ethoxy}phenyl)-2-isopropoxypropionic acid] | 22 | 22 | 92 | 32 | 41 | 40 | 90 | – | –
6 | CCCCOCCN(CCOc1ccc(CC(OC(C)C)C(=O)O)cc1)C(=O)OCC(C)C (stereo not drawn) [Example 132, 3-(4-{2-[N-(2-butoxyethyl)-N-isobutoxycarbonylamino]ethoxy}phenyl)-2-isopropoxypropionic acid] | 20 | 18 | 96 | 39 | 7 | 14 | 97 | – | –
